Test results from patent publication US6713506B2, “Tea polyphenol esters and analogs thereof for cancer prevention and treatment” (University of South Florida, priority 2000, dated 2004).
Each block holds one compound with its values, some of them ahead of it. Non-standard residues stand in square brackets, D forms with d. Residues, ends and D or L forms follow the SMILES beside them. *: point of attachment. Nle = CCCC[C@H](N)C(=O)O; Nva = CCC[C@H](N)C(=O)O; Cbz = O=C(OCc1ccccc1)*

Legend:
[1] = biological target: chymotrypsin-like activity of purified 20S proteasome (UniProt Q9P992); format: biochemical; settings: for IC50: read-out: IC50 towards the chymotrypsin-like activity of purified 20S proteasome
Method: (§1) FIG. 8. […] A). […] Initially, 0.5 μg of purified 20S proteasome is incubated with 20 μM of a fluorogenic peptide substrate, Suc-Leu-Leu-Val-Tyr-AMC, for 30 min at 37° C. in 100 μl of assay buffer (20 mM Tris-HCl, pH 8.0) with various concentrations of tannic acid. After incubation, the reaction mixture is diluted to 200 μl with the assay buffer, followed by measurement of the hydrolyzed 7-amido-4-methyl-coumarin (AMC) groups using a fluorometer with an excitation filter of 380 nm and an emission filter of 460 nm. B). […] Tannic acid (0.3 μg/ml) and Glucose (180 μg/ml) are used in the proteasome activity assay as described above. C). […] Purified calpain I (3 μg) protein is incubated with 40 μM of a fluorogenic peptide substrate, Suc-Leu-Tyr-AMC, for 30 min at 37° C. in 100 μl of assay buffer (50 mM Tris-HCl, pH 7.5, containing 50 mM NaCl, 1 mM EDTA, 1 mM EGTA, 5 mM β-Mercaptoethanol, 5 mM CaCl2, and 0.1% CHAPS) in the absence (control) or presence of 5 μg/ml of tannic acid or 0.18 μg/ml of calpeptin (calpain inhibitor).
(§2) Inhibition of the proteasome activity in vitro by tea polyphenols—To measure the 20S proteasome chymotrypsin-like activity, 0.5 μg of a purified 20S proteasome (Calbiochem) is incubated with 20 μM of a fluorogenic peptide substrate, Suc-Leu-Leu-Val-Tyr-AMC (Calbiochem), for 30 min at 37° C. in 100 μl of assay buffer (20 mM Tris-HCl, pH 8.0), with or without tea polyphenols (purity >95%; Sigma) or tea extract. After incubation, the reaction mixture is diluted to 200 μl with the assay buffer, followed by measurement of the hydrolyzed 7-amido-4-methyl-coumarin (AMC) groups using a VersaFluor™ Fluorometer with an excitation filter of 380 nm and an emission filter of 460 nm (Bio-Rad).

purified calpain I = biological target: T1, purified calpain I (Homo sapiens, UniProt P07384); assay: Calpain I activity assay; format: biochemical; settings: FIG. 3B: EGCG 10 μM, calpeptin 1 μM
T1 construct: 3 μg purified calpain I (Human Erythrocytes, Calbiochem) is incubated; purchased Calbiochem; host or cells: human erythrocytes (tissue-purified)
T1 sequence (P07384 1-714): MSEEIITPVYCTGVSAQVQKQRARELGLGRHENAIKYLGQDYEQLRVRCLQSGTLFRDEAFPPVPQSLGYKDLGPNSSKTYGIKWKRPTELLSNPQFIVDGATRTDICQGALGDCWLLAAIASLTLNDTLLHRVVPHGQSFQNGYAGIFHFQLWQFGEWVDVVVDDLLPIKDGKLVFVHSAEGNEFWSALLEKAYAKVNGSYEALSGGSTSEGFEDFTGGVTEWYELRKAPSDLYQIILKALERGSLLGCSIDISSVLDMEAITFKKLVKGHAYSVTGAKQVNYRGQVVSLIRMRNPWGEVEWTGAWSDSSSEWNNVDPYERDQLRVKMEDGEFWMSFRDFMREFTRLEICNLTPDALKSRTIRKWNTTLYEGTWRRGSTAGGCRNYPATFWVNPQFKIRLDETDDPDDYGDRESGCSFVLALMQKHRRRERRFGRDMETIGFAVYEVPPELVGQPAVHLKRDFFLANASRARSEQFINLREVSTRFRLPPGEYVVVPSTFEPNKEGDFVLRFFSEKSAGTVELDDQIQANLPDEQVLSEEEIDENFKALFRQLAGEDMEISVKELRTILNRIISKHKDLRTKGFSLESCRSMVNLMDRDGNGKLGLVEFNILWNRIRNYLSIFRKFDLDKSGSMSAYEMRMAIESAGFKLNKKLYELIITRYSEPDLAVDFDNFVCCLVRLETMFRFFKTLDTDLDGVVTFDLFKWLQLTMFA
T1 sequence (P04632 1-268 partner): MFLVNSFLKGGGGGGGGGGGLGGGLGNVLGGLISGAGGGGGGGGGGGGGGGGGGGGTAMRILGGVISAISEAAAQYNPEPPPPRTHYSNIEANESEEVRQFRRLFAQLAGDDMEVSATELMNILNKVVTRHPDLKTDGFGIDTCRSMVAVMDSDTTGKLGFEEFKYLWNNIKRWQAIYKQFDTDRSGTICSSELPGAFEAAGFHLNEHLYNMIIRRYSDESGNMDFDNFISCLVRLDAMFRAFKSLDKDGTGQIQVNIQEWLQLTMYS
Method: as §1

[2] = biological target: T2, proteasome chymotrypsin-like activity in living Jurkat cells (Homo sapiens, UniProt P28074); assay: Proteasome chymotrypsin-like activity in living Jurkat T cells; format: cell-based; settings: 10 μM, living Jurkat cells
T2 construct: endogenous in cells; host or cells: Jurkat T cells (whole cell extract or intact cells)
Method: FIG. 10. Inhibition of the chymotrypsin-like activity by tannic acid in intact Jurkat T cells. Intact Jurkat T cells (1×10^5 cells/ml/well) are cultured in 24-well plates. These cells are first incubated for 12 h with various concentrations of tannic acid as indicated, followed by an additional 2 h-incubation with a fluorogenic peptide substrate, Suc-Leu-Leu-Val-Tyr-AMC for the chymotrypsin-like activity. Then, cell medium (200 μl per sample) is collected and used for measurement of free AMCs.
Inhibition of the proteasome activity in living cells by tea polyphenols—To measure inhibition of the chymotrypsin-like activity in living tumor cells, Jurkat T (1×10^5 cells/ml/well), MCF7 or PC-3 cells (1×10^4 cells/ml/well) are cultured in 24-well plates. These cells are first incubated for 12 h with various concentrations of EGCG, EGC, β-lactone or LLnL, followed by an additional 2 h-incubation with fluorogenic peptide substrates, Suc-Leu-Leu-Val-Tyr-AMC for the chymotrypsin-like activity and Z-Gly-Gly-Arg-AMC for the trypsin-like activity. After that, cell medium (200 μl per sample) is collected and used for measurement of free AMCs.

[3] = biological target: T3, proteasome activity in MCF-7 cells (Homo sapiens, UniProt P28072+P28074+Q99436); assay: Proteasome activity in lysate of pretreated MCF-7 cells; format: cell-based; settings: MCF-7 cells pretreated with inhibitor
T3 construct: endogenous in cells; host or cells: MCF-7 cells, pretreated and then lysed
T3 sequence (P28074 60-263): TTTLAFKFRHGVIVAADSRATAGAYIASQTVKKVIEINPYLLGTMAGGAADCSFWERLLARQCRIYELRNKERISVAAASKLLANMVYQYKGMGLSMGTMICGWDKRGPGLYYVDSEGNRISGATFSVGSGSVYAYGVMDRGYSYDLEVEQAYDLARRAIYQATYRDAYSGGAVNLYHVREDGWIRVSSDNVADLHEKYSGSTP
T3 sequence (P28072 1-239): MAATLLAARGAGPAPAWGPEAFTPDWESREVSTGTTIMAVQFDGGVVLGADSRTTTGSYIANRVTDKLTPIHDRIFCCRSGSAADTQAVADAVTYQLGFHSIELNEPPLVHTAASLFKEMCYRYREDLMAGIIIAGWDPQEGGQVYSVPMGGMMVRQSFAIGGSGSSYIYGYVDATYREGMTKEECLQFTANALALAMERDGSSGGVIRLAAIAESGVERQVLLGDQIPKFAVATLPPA
T3 sequence (Q99436 44-277): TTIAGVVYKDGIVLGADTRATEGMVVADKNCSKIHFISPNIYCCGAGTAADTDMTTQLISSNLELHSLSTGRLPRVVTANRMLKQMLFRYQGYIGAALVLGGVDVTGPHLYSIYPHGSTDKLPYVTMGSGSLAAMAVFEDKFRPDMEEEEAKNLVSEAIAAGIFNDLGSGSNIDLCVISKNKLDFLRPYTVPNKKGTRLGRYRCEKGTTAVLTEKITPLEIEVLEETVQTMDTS
Method: (a) The selected cell lines are treated with EGCG (vs. EGC) or ECG (vs. EC) at various concentrations (0-80 μM) for up to 96 h, followed by preparation of protein extracts and measurement of the proteasomal chymotrypsin-like, trypsin-like and PGPH activities and the calpain activity in cell-free assay. […] Thus, a protein extract of breast cancer cells pretreated with EGCG also contains decreased levels of the proteasome activity.

[4] = biological target: chymotrypsin-like activity of purified 20S proteasome; format: biochemical; settings: read-out: IC50 towards the chymotrypsin-like activity of purified 20S proteasome
Method: as §1, §2

[5] = biological target: T4, caspase-3-like activity in Jurkat T cell extract (Homo sapiens, UniProt P42574); assay: Caspase-3 activity assay in Jurkat T cell extract; format: biochemical
T4 construct: endogenous in cells; host or cells: Jurkat T cell whole cell extract
T4 sequence (P42574 29-175 limits assumed): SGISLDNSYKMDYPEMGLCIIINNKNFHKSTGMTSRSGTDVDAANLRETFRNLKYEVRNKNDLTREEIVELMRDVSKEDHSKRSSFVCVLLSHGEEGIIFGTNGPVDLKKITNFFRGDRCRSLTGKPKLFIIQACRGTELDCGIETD
T4 sequence (P42574 176-277 limits assumed): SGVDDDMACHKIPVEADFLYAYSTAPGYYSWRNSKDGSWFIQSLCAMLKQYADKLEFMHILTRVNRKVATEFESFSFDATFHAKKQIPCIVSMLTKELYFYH
Method: Calpain I and Caspase-3 activities assays with tea polyphenols—To measure calpain I activity, 3 μg purified calpain I (Human Erythrocytes, Calbiochem) is incubated with 40 μM of a fluorogenic peptide substrate, Suc-Leu-Tyr-AMC (Calbiochem), for 30 min at 37° C. in 100 μl of assay buffer (50 mM Tris-HCl, pH 7.5, containing 50 mM NaCl, 1 mM EDTA, 1 mM EGTA, 5 mM β-Mercaptoethanol, 5 mM CaCl2, and 0.1% CHAPS), with or without EGCG. After incubation, the reaction mixture is diluted to 200 μl with the assay buffer, and the hydrolyzed AMCs are quantified as described above. For caspase-3 activity assay, the whole cell extract (3.5 μg) from Jurkat T cells is incubated for 90 min at 37° C. with 20 μM of a fluorogenic peptide substrate, Ac-Asp-Glu-Val-Asp-AMC. These procedures were similar to those of the proteasome assay with cell free extracts described above.

Chain of chymotrypsin-like activity of purified 20S proteasome (UniProt Q9P992) (Q9P992 whole entry): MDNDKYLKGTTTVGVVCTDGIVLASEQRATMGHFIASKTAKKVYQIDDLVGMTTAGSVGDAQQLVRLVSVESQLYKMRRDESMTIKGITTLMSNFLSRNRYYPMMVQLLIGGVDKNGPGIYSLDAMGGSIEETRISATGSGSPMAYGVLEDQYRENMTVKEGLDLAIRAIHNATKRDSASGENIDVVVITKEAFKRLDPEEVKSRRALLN
Chain of chymotrypsin-like activity of purified 20S proteasome (Q9P992 whole entry): as above

Compound: Oc1cc(O)c2c(c1)OC(c1ccc(O)c(O)c1)C(O)C2 (single isomer, unassigned; (-)) [C, (−)-catechin]
inhibition of purified 20S proteasome chymotrypsin-like activity (in words) [1]: do not inhibit the proteasome activity

inhibition of purified calpain activity (in words) (purified calpain I): able to inhibit
Compound: CCCC[C@@H](C=O)NC(=O)[C@H](CC(C)C)NC(=O)OCc1ccccc1 [Calpeptin, calpeptin, reference compound]

Compound: Oc1cc(O)c2c(c1)O[C@H](c1cc(O)c(O)c(O)c1)[C@@H](O)C2 [GC, (−)-gallocatechin]
inhibition of purified 20S proteasome chymotrypsin-like activity (in words) [1]: do not inhibit the proteasome activity

Compound: CCCC[C@@H](C=O)NC(=O)[C@H](CC(C)C)NC(=O)[C@H](CC(C)C)NC(C)=O [LLnL, reference compound] (Ac-Leu-Leu-[Nle]-aldehyde)
inhibition of chymotrypsin-like activity [2]: 40%

proteasome activity in lysate of pretreated cells [3]: decreased levels of proteasome activity
Compound: CCC[C@@H](C=O)NC(=O)[C@H](CC(C)C)NC(=O)[C@H](CC(C)C)NC(=O)OCc1ccccc1 [LLnV] (Cbz-Leu-Leu-[Nva]-aldehyde)

Compound: O=C(O)c1cc(O)c(O)c(O)c1 [gallic acid, reference compound]
IC50 [4]: 7100 µM
fold less potent than EGCG ([1]; ratio of IC50 to EGCG): 83,000 fold

Compound: COC(=O)c1cc(O)c(O)c(O)c1 [methyl gallate, reference compound]
inhibition of purified 20S proteasome chymotrypsin-like activity (in words) [1]: more potent than gallate

Compound: CC(C)[C@H](O)[C@@]12NC(=O)[C@H](C)[C@@H]1OC2=O [β-lactone, clastolactacystin β-lactone, reference compound]
inhibition of chymotrypsin-like activity [2]: 20%
IC50 [1]: 0.6 µM

Compound: (−)-catechin-3-gallate [CG]
IC50 [1]: 0.124 µM

Compound: (−)-epicatechin-3-gallate [ECG]
IC50 [1]: 0.194 µM

Compound: (−)-gallocatechin-3-gallate [GCG]
IC50 [1]: 0.187 µM

inhibition of caspase-3-like activity (in words) [5]: blocked
Compound: Ac-DEVD-CMK [reference compound]
